Assays:
[1] = administered as immediate release tablet formulation (Diovan); cited from earlier work
[2] = human, in vivo
Experimental: In order to determine the relative bioavailability, an open-label, single dose, two-period, crossover study is conducted in 24 healthy subjects.

[3] = Bioavailability of new 80 mg valsartan pediatric tablet relative to 80 mg commercial tablet, single-dose crossover; settings: in the same study
Experimental: The study is conducted in 24 healthy subjects using an open-label, single-dose, two period, randomized, crossover study design.

intersubject variability (CV %) for the Cmax and AUCτ [2]: 24-40%
variability of valsartan PK [3]: 30-50%
SMILES: CCCCC(=O)N(Cc1ccc(-c2ccccc2-c2nnn[nH]2)cc1)[C@H](C(=O)O)C(C)C [Valsartan, (S)—N-(1-carboxy-2-methylprop-1-yl)-N-pentanoyl-N-[2′-(1H-tetrazol-5-yl)biphenyl-4-ylmethyl]amine]
bioavailability [1]: around 30%
